Test system: retinal vein occlusion (RVO) model
Experiment: RVO model, intravitreal administration: thickness of INL
Format: in vivo, mice
Conditions: 0.8 ng, 8 ng or 80 ng per eye immediately after laser irradiation, 1 day after irradiation
Procedure: Eight-week-old mice (Japan SLC, Inc., ddy strain) were anesthetized by intramuscularly administering 10 mL/kg of a mixed anesthetic solution diluted so as to contain ketamine (120 mg/kg) and xylazine (6 mg/kg). After that, 0.15 mL of rose bengal (20 mg/kg; WAKO) was administered into the tail vein, and a vein three head systems away from the optic nerve head of the right eye of the mice was irradiated with a laser to occlude a retinal vein. For the occlusion, the laser irradiation was performed 10 times to 15 times per vein. For the laser irradiation, an attachment of a fundus photography apparatus Micron 4 (Phoenix Research Laboratories, Inc., Pleasanton, Calif., USA) was used (wavelength: 532 nm, spot size: 50 μm, irradiation time: 5,000 ms, laser output: 50 mW). Three veins were occluded per eye, and it was confirmed with photographs of the fundus that the laser-irradiated veins had been completely occluded. […]
After 1 day from the laser irradiation, the mice were euthanized by cervical dislocation, the eyeball was extirpated, and histological evaluation was performed by a hematoxylin-eosin staining method. In addition, the thickness of the retinal inner nuclear layer (INL) was measured at intervals of 240 μm on both sides, i.e., ear side and nose side from the center of the optic nerve head. […]

## C[C@H](Oc1ccc(-c2nc(-c3ccc4[nH]cnc4c3)no2)cc1C(F)(F)F)C(F)(F)F.Cl [Compound 1, 5-{5-[3-(trifluoromethyl)-4-{[(2S)-1,1,1-trifluoropropan-2-yl]oxy}phenyl]-1,2,4-oxadiazol-3-yl}-1H-benzimidazole monohydrochloride]
  thickening of the INL (retinal edema): ameliorated the thickening of the INL

From patent US20210113529A1, “MEDICINE FOR PREVENTING OR TREATING OPHTHALMIC DISEASE ASSOCIATED WITH ENHANCED INTRAOCULAR NEOVASCULARIZATION AND/OR INTRAOCULAR VASCULAR PERMEABILITY” (KYOTO UNIVERSITY, priority 2018, published 2021)
